Measurements reported in patent US20160242416A1, “FUNGICIDAL ISOXAZOLINE CARBINOLS” (E I DU PONT DE NEMOURS AND COMPANY, priority 2015, published 2016).

Tests used:
[1] = tested on: Erysiphe graminis f sp. tritici; assay: Test G: wheat powdery mildew, preventive spray on wheat seedlings; conditions: 100 = 100% disease control; for Test G rating (% disease control): 10 ppm, wheat powdery mildew, 0 = no control
[2] = tested on: Zymoseptoria tritici; assay: Test E: wheat leaf blotch, preventive spray on wheat seedlings; conditions: 100 = 100% disease control; for Test E rating (% disease control): 10 ppm, wheat leaf blotch, 0 = no control
[3] = tested on: Stagonospora nodorum; assay: Test D: wheat glume blotch, preventive spray on wheat seedlings; conditions: 100 = 100% disease control; for Test D rating (% disease control): 10 ppm, wheat glume blotch, 0 = no control
[4] = tested on: Botrytis cinerea; assay: Test B: gray mold, preventive spray on tomato seedlings; conditions: 100 = 100% disease control; for Test B rating (% disease control): 10 ppm, gray mold on tomato, 0 = no control
[5] = tested on: Puccinia recondita f sp. tritici; assay: Test F: wheat leaf rust, preventive spray on wheat seedlings; conditions: 100 = 100% disease control; for Test F rating (% disease control): 10 ppm, wheat leaf rust, 0 = no control
Excerpt: General protocol for preparing test solutions for Tests A-G: the test compounds were first dissolved in acetone in an amount equal to 3% of the final volume and then suspended at the desired concentration (in ppm) in acetone and purified water (50/50 mix by volume) containing 250 ppm of the surfactant PEG400 (polyhydric alcohol esters). The resulting test suspensions were then used in Tests A-G. Compounds were sprayed at a concentration of 50 ppm (*) or 10 ppm to the point of run-off on the test plants, the equivalent of a rate of 200 g/ha or 40 g/ha, respectively.
The test solution was sprayed to the point of run-off on wheat seedlings. The following day the seedlings were inoculated with a spore suspension of Puccinia recondita f sp. tritici; (the causal agent of wheat leaf rust) and incubated in a saturated atmosphere at 20° C. for 24 h, and then moved to a growth chamber at 20° C. for 6 days, after which time visual disease ratings were made.
A dash (-) indicates no test results. Compounds with an asterisks (*) were applied at a concentration of 50 ppm, otherwise test solutions were applied at 10 ppm.

[6] = 10 ppm test solution, 0 = no control relative to controls

Row | Compound | Test G rating (% disease control) [1] [%] | Test E rating (% disease control) [2] [%] | Test D rating (% disease control) [3] [%] | Test B rating (% disease control) [4] [%] | Test F rating (% disease control) [5] [%] | Test G disease control rating [1, 6] [%] | Test E disease control rating [2, 6] [%] | Test D disease control rating [3, 6] [%] | Test B disease control rating [4, 6] [%] | Test F disease control rating [5, 6] [%]
1 | CC(C)(C)C(O)(Cn1cncn1)C1=NOC(c2cnccn2)C1 (single isomer, unassigned) [Compound 168] | 35 | 3 | 0 | 11 | 0 |  |  |  |  | 
2 | CC1(C(O)(Cn2cncn2)C2=NOC(c3ccc(Cl)cc3)C2)CC1 (single isomer, unassigned) [Compound 126] | 99 | 89 | 100 | 97 | 100 |  |  |  |  | 
3 | CCC(C)(C)C(O)(Cn1cncn1)C1=NOC(Cc2ccc(Cl)cc2)C1 (single isomer, unassigned) [Compound 18] | 99 | 6 | 87 | 0 | 100 |  |  |  |  | 
4 | OC(Cn1cncn1)(C1=NOC(COC2CCCCC2)C1)c1ccc(Cl)cc1 (single isomer, unassigned) [Compound 89] | 76 | 0 | 0 | 0 | 0 |  |  |  |  | 
5 | CC(C)(C)CC(O)(Cn1cncn1)C1=NOC(COc2ccc(Cl)cc2)C1 (single isomer, unassigned) [Compound 172] | 99 | 4 | 100 | 0 | 100 |  |  |  |  | 
6 | CC(C)(C)C(O)(Cn1cncn1)C1=NOC(COCc2ccccc2)C1 (single isomer, unassigned) [Compound 60] | 90 | 3 | 73 | 0 | 28 |  |  |  |  | 
7 | CC(C)(C)C(O)(Cn1cncn1)C1=NOC(COc2ccc(Cl)cn2)C1 (single isomer, unassigned) [Compound 96] | 99 | 5 | 100 | 85 | 100 |  |  |  |  | 
8 | OC(Cn1cncn1)(C1=NOC(c2ccc(Cl)cc2)C1)c1ccccc1F (single isomer, unassigned) [Compound 134] | 98 | 31 | 100 | 0 | 99 |  |  |  |  | 
9 | CC(C)(C)C(O)(Cn1cncn1)C1=NOC(Cc2ccccc2)C1 (single isomer, unassigned) [Compound 86] | 98 | 1 | 99 | 72 | 74 |  |  |  |  | 
10 | OC(Cn1cncn1)(C1=NOC(c2ccc(Cl)cc2)C1)c1ccc(C(F)(F)F)cc1 (single isomer, unassigned) [Compound 106] | 89 | 0 | 0 | 0 | 72 |  |  |  |  | 
11 | OC(Cn1cncn1)(C1=NOC(Cc2ccc(Cl)cc2)C1)c1ccc(Cl)cc1 (single isomer, unassigned) [Compound 199] | 100 | 0 | 86 | 0 | 100 |  |  |  |  | 
12 | OC(Cn1cncn1)(C1=NOC2c3ccccc3CCC12)c1ccc(Cl)cc1 (stereo not drawn) [Compound 222] |  |  |  |  |  | 99 | 23 | 50 | 9 | 100
